Measured values as given in patent publication US20170152258A9, “Substituted Pyridopyrazines as Syk Inhibitors” (HUTCHISON MEDIPHARMA LIMITED, priority 2012, published 2017).

Experiments:
RBL-2H3 cells = assay: IgE-induced Beta-hexosaminidase secretion in RBL-2H3 cells; assay type: cell-based; conditions: Rattus norvegicus, DNP-BSA stimulation
Method: For the determination of IgE-induced Beta-hexosaminidase secretion, RBL-2H3 cells (SIBS) are seeded in 96 well plates at 4×10^4 cells per well and incubated in MEM media with 15% FBS and Glutamine ([…]) for 4 hours and sensitized with 0.5 ug/ml of SPE-7 overnight. Cells are washed 3 times with Tyrode's buffer and incubated in the presence or absence of various concentrations of the testing compound for 20 min at 37° C., 5% CO2. Cells are stimulated by adding 10 uL of DNP-BSA solution (150 ng/mL) to each well and incubating for 45 minutes at 37° C., 5% CO2. Then, 45 μL of the supernatant is taken and incubated with 100 μL of 1 mM 4-Nitrophenyl N-acetyl-β-D-glucosaminide (Sigma, Cat. No. N9376), which is diluted in 0.05 M citrate buffer (pH 4.5), for 1.5 hr at 37° C. The reactions are quenched by adding 185 μL of 0.05 M sodium carbonate buffer (pH 10.0). Plates are read at 405 nm on Multiskan (MK 3).

Syk kinase = Syk kinase (Homo sapiens, UniProt P43405); assay: SYK Enzymatic Assay (Z-LYTE Tyr 2 peptide); assay type: biochemical; conditions: 8 concentrations 1 μM down to 0.0003 μM
Method: Syk kinase assay are performed in vitro using Kit-Tyr 2 Peptide (Invitrogen, Cat. No. PV3191) and in a 384-well assay plate. […] The 384-well assay plate (Corning, Cat. No. 3575) is mixed and incubated at room temperature for 1 hour. 10 μL of the Development Solution (prepared by diluting Development Reagent A (Cat. No. PV3297) to 1/32 with Development Buffer (Cat. No. PV3127)) is then added to each well, mixed and incubated at room temperature for another 1 hour. The reactions are then stopped by adding 10 μL of the Stop Reagent (Invitrogen, Cat. No. PV3094), and the plate is read with Wallac 1420 VICTOR^3 Multilabel Counter (PerkinElmer™) at 445 nm and 520 nm fluorescence. All compounds are tested at 8 concentrations (1 μM down to 0.0003 μM) using a 1:3 serial dilution scheme.

[1] = RBL-2H3, IgE-induced Beta-hexosaminidase secretion

SMILES	IC50 (RBL-2H3 cells; [1]) [nM]	IC50 (Syk kinase) [nM]	IC50 (RBL-2H3 cells; IgE-induced Beta-hexosaminidase secretion) [nM]
CC(=O)N1CC(c2ccc(-c3cc4nccnc4c(OC[C@@H]4CN(C(N)=O)CCO4)n3)cc2)C1 [Cmpd 296]	> 3330	72	–
O=C(C(F)F)N1CCO[C@H](COc2nc(-c3ccc(N4CCNCC4)cc3)cc3nccnc23)C1 [Compound 6, (S)-2,2-difluoro-1-(2-((7-(4-(piperazin-1-yl)phenyl)pyrido[4,3-b]pyrazin-5-yloxy)methyl)morpholino)ethanone]	–	34	260
CS(=O)(=O)N1CCO[C@H](COc2nc(-c3ccc(N4CCOCC4)c(F)c3)cc3nccnc23)C1 [Compound 7]	122	71	–
CN1CCC(c2ccc(-c3cc4nccnc4c(OC[C@@H]4CN(S(C)(=O)=O)CCO4)n3)cc2)CC1 [Compound 8]	113	48	–
O=C(C(F)F)N1CCO[C@H](COc2nc(-c3ccc(C4CCOCC4)cc3)cc3nccnc23)C1 [Compound 9]	127	98	–
CS(=O)(=O)N1CCO[C@H](COc2nc(-c3ccc(C4CCOCC4)cc3)cc3nccnc23)C1 [Compound 11]	48	52	–
CS(=O)(=O)N1CCO[C@H](COc2nc(-c3ccc(N4CCOCC4)cc3)cc3nccnc23)C1 [Compound 12]	21	24	–
CN1CCN(c2ccc(-c3cc4nccnc4c(OC[C@@H]4CN(S(C)(=O)=O)CCO4)n3)cc2)CC1 [Compound 13]	40	25	–
CS(=O)(=O)N1CCO[C@H](COc2nc(-c3ccc(N4CCNCC4)cc3)cc3nccnc23)C1 [Compound 14]	631	25	–
O=C(C(F)F)N1CCO[C@H](COc2nc(-c3ccc(N4CCOCC4)c(F)c3)cc3nccnc23)C1 [Compound 15]	102	96	–
CN1CCN(c2ccc(-c3cc4nccnc4c(OC[C@@H]4CN(C(=O)C(F)F)CCO4)n3)cc2)CC1 [Compound 16]	33	36	–
CCN1CCN(c2ccc(-c3cc4nccnc4c(OC[C@@H]4CN(C(=O)C(F)F)CCO4)n3)cc2)CC1 [Compound 17]	56	32	–
CC1CN(c2ccc(-c3cc4nccnc4c(OC[C@@H]4CN(S(C)(=O)=O)CCO4)n3)cc2)CCO1 (some centres unmarked) [Compound 18]	62	23	–
C[C@@H]1CN(c2ccc(-c3cc4nccnc4c(OC[C@@H]4CN(S(C)(=O)=O)CCO4)n3)cc2)C[C@H](C)O1 [Compound 19]	110	29	–
CS(=O)(=O)N1CCO[C@H](COc2nc(-c3ccc(N4CCC(F)(F)CC4)cc3)cc3nccnc23)C1 [Compound 20]	66	41	–
CS(=O)(=O)N1CCO[C@H](COc2nc(-c3ccc(N4CCCCC4)cc3)cc3nccnc23)C1 [Compound 21]	88	30	–
CC(C)(O)C1CCN(c2ccc(-c3cc4nccnc4c(OC[C@@H]4CN(S(C)(=O)=O)CCO4)n3)cc2)CC1 [Compound 22]	73	16	–
CCS(=O)(=O)N1CCC(c2ccc(-c3cc4nccnc4c(OC[C@@H]4CN(C(C)=O)CCO4)n3)cc2)CC1 [Compound 23]	109	62	–
CC(=O)N1CCO[C@H](COc2nc(-c3ccc(N4CCOCC4)cc3)cc3nccnc23)C1 [Compound 24]	127	76	–
CCS(=O)(=O)N1CCN(c2ccc(-c3cc4nccnc4c(OC[C@@H]4CN(C(C)=O)CCO4)n3)cc2)CC1 [Compound 25]	155	67	–
CS(=O)(=O)N1CCN(c2ccc(-c3cc4nccnc4c(OC[C@@H]4CN(S(C)(=O)=O)CCO4)n3)cc2)CC1 [Compound 26]	113	18	–
CS(=O)(=O)N1CCO[C@H](COc2nc(-c3ccc(N4CCN(CCO)CC4)cc3)cc3nccnc23)C1 [Compound 27]	222	21	–
CC(Oc1nc(-c2ccc(N(C)C)cc2)cc2nccnc12)C1CN(S(C)(=O)=O)CCO1 (centres unmarked) [Compound 236]	–	109	–

SMILES	IC50 (RBL-2H3 cells; [1]) [nM]	IC50 (Syk kinase) [nM]	IC50 (RBL-2H3 cells; IgE-induced Beta-hexosaminidase secretion) [nM]
CC(Oc1nc(-c2ccc(N(C)C)cc2)cc2nccnc12)C1CN(C(N)=O)CCO1 (centres unmarked) [Compound 238]	–	275	–
CNC(=O)N1CCOC(C(C)Oc2nc(-c3ccc(N(C)C)cc3)cc3nccnc23)C1 (centres unmarked) [Compound 239]	–	451	–
CC(Oc1nc(-c2ccc(N(C)C)cc2)cc2nccnc12)C1CN(S(C)(=O)=O)CCO1 (centres unmarked) [Compound 240]	–	262	–
c1cnc2c(O[C@@H]3CCNC3)nc(-c3ccc(N4CCOCC4)cc3)cc2n1 [Compound 243]	–	300	–
CC(C)(N)c1ccc(-c2cc3nccnc3c(OC[C@@H]3CN(S(C)(=O)=O)CCO3)n2)cc1 [Compound 244]	–	136	–
CC(=O)N1CCO[C@H](COc2nc(-c3ccc(C(C)(C)N)cc3)cc3nccnc23)C1 [Compound 245]	–	449	–
CC(=O)N1CCO[C@H](COc2nc(-c3ccc(C(C)N(C)C)cc3)cc3nccnc23)C1 (some centres unmarked) [Compound 271]	–	741	–
CN(C)CCc1ccc(-c2cc3nccnc3c(OC[C@@H]3CN(S(C)(=O)=O)CCO3)n2)cc1 [Compound 272]	–	178	–
N#CC1(c2ccc(-c3cc4nccnc4c(OC[C@@H]4CN(C(N)=O)CCO4)n3)cc2)CC1 [Compound 275]	–	76	–
CC(=O)N1CCO[C@H](COc2nc(-c3ccc(C4(C#N)CC4)cc3)cc3nccnc23)C1 [Compound 276]	–	112	–
C=C(C)c1ccc(-c2cc3nccnc3c(OC[C@@H]3CN(S(C)(=O)=O)CCO3)n2)cc1 [Compound 277, (S)-4-(methylsulfonyl)-2-(((7-(4-(prop-1-en-2-yl)phenyl)pyrido[3,4-b]pyrazin-5-yl)oxy)methyl)morpholine]	–	192	–
CC(=O)N1CCO[C@H](COc2nc(-c3ccc(C(C)(CO)CO)cc3)cc3nccnc23)C1 [Compound 278]	–	175	–
COC(C)c1ccc(-c2cc3nccnc3c(OC[C@@H]3CN(C(C)=O)CCO3)n2)cc1 (some centres unmarked) [Compound 280]	–	113	–
CC(=O)N1CCO[C@H](COc2nc(-c3ccc(C(O)C(C)(C)C)cc3)cc3nccnc23)C1 (some centres unmarked) [Compound 285]	–	258	–
CC(=O)N1CCO[C@H](COc2nc(-c3ccc(C(O)C(C)C)cc3)cc3nccnc23)C1 (some centres unmarked) [Compound 286]	–	403	–
CC(C)C(O)c1ccc(-c2cc3nccnc3c(OC[C@@H]3CN(S(C)(=O)=O)CCO3)n2)cc1 (some centres unmarked) [Compound 287]	–	105	–
CC(=O)N1CCO[C@H](COc2nc(-c3ccc(C4(C#N)CCC4)cc3)cc3nccnc23)C1 [Compound 289]	–	115	–
CC(=O)N1CC(c2ccc(-c3cc4nccnc4c(OC[C@@H]4CN(C(C)=O)CCO4)n3)cc2)C1 [Compound 295, (S)-1-(2-(((7-(4-(1-acetylazetidin-3-yl)phenyl)pyrido[3,4-b]pyrazin-5-yl)oxy)methyl)morpholino)ethanone]	–	128	–
CC(=O)N1CCO[C@H](COc2nc(-c3ccc(C4(O)CCC4)cc3)cc3nccnc23)C1 [Compound 309]	–	127	–
CN1C[C@@H](COc2nc(-c3ccc(C(C)(C)O)cc3)cc3nccnc23)OCC1=O [Compound 310]	–	588	–
CC(=O)NC(C)(C)c1ccc(-c2cc3nccnc3c(OC[C@@H]3CN(S(C)(=O)=O)CCO3)n2)cc1 [Compound 313]	–	104	–
CC(C)(O)c1ccc(-c2cc3nccnc3c(OCC3OCCNC3=O)n2)cc1 (centres unmarked) [Compound 319]	–	208	–
CS(=O)(=O)N1CCC(c2ccc(-c3cc4nccnc4c(OCC4OCCNC4=O)n3)cc2)CC1 (centres unmarked) [Compound 320]	–	119	–
